Assay results: PubChem BioAssay (NCI)
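1) Cells in 96-well plates. 2) Compound, 48 h, 5 concentrations. 3) Linear interpolation between surrounding doses. 4) Unreached endpoint = highest concentration. Abbreviation: GI50, concentration required for 50% inhibition of growth. TGI: total growth inhibition.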

Key:
Experiment in all cases: NCI anticancer screen, dose series, 48 h
[1] = test system: MOLT-4 leukemia
[2] = test system: CCRF-CEM leukemia
[3] = test system: HCT-116 colon
[4] = test system: SK-MEL-5 melanoma
[5] = test system: HS 578T breast
[6] = test system: SN12C renal
[7] = test system: UO-31 renal
[8] = test system: HT29 colon
[9] = test system: MDA-N

Row | Structure (SMILES) | TGI [1] | TGI [2] | TGI [3] | TGI [4] | TGI [5] | TGI [6] | TGI [7] | TGI [8] | GI50 [4] | GI50 [5] | GI50 [6] | GI50 [7] | TGI [9] | GI50 [1] | GI50 [2] | GI50 [3] | GI50 [8]
1 | CN(C)c1nncc2[nH]cnc12 | > 100 µM | > 100 µM | > 100 µM | > 100 µM | > 100 µM | > 100 µM | > 100 µM | > 100 µM |  |  |  |  |  |  |  |  | 
2 | CCCCCCCCCCCCCC[n+]1ccc2c(C)c3c(c(C)c2c1)c1cc(O)ccc1n3CC |  |  |  | 0.724 µM | 3.67 µM | 1.31 µM | 4.57 µM |  | 0.258 µM | 0.975 µM | 0.341 µM | 1.39 µM |  |  |  |  | 
3 | Cc1cccnc1/N=C/c1c(O)n(C)c(=O)[nH]c1=O | > 100 µM |  | > 100 µM | > 100 µM | > 100 µM | > 100 µM | > 100 µM | > 100 µM |  |  |  |  | > 100 µM |  |  |  | 
4 | O=S(=O)(O)ON=C1c2ccccc2-c2ccccc21 | > 100 µM | > 100 µM | > 100 µM | > 100 µM | > 100 µM | > 100 µM | > 100 µM | > 100 µM |  |  |  |  |  |  |  |  | 
5 | O=C1[C@@H]2[C@@H](c3ccccc3)[C@]2(Cl)C(=O)[C@H]2[C@H](c3ccccc3)[C@@]12Cl | > 100 µM | > 100 µM | > 100 µM | > 100 µM | > 100 µM | > 100 µM | > 100 µM | > 100 µM |  |  |  |  |  |  |  |  | 
6 | O=c1oc2cc(O)ccc2c(O)c1C(c1cccnc1)c1c(O)c2ccc(O)cc2oc1=O | > 100 µM |  | > 100 µM | > 100 µM | > 100 µM | > 100 µM | > 100 µM | > 100 µM |  |  |  |  | > 100 µM |  |  |  | 
7 | CCOC(=O)Cc1nc2sc(S(N)(=O)=O)nn2c1Br |  |  | 96.5 µM | 42.4 µM | > 100 µM | 52.5 µM | 29.4 µM | 45.1 µM |  |  |  |  | > 100 µM |  |  |  | 
8 | O=C1CCC(=O)N1n1c(Cc2ccc(Cl)cc2)n[nH]c1=O | > 100 µM |  | > 100 µM | > 100 µM | > 100 µM | > 100 µM | > 100 µM | > 100 µM |  |  |  |  | > 100 µM |  |  |  | 
9 | COC(=O)/C=C/c1ccc2c(c1)CC1(C2)Cc2cc3c(cc2C1=O)CCC3 (centres undefined) | > 100 µM | > 100 µM | > 100 µM | > 100 µM | 78.9 µM | > 100 µM | > 100 µM |  |  |  |  |  | > 100 µM |  |  |  | 
10 | N=c1c2c(-c3ccccc3)c[nH]c2ncn1N | > 100 µM | > 100 µM | > 100 µM | > 100 µM |  | > 100 µM | > 100 µM | > 100 µM |  |  |  |  | > 100 µM |  |  |  | 
11 | O=C1/C(=C/c2ccc(Cl)cc2)N=C(c2ccccc2)N1CCc1cccs1 | > 100 µM | > 100 µM | > 100 µM | 33.2 µM | > 100 µM | > 100 µM |  | > 100 µM | 15.6 µM | 20.3 µM | 21.1 µM |  |  | 16.5 µM | 22.7 µM | 6.65 µM | 20.3 µM
12 | N#Cc1c(N)sc2c1-c1ccccc1OC2 | > 100 µM | 36 µM | 82.8 µM | > 100 µM |  | 68.6 µM | 70 µM | > 100 µM |  |  |  |  | 67.1 µM |  |  |  | 
13 | CCOc1ccc(/C=N/[N+](C)(C)C)cc1OCC | > 10 µM | > 10 µM | > 10 µM | > 10 µM | > 10 µM | > 10 µM |  | > 10 µM |  |  |  |  | > 10 µM |  |  |  | 
14 | O=C(/C=C/c1ccc(O)c(O)c1)c1cc(O)cc(O)c1 | > 100 µM |  | 25.6 µM | > 100 µM | 70.5 µM | 26.2 µM | 22.6 µM | 39 µM |  |  |  |  | 20.5 µM |  |  |  | 
15 | Cn1c(-c2ccccc2)cc2c3ccsc3c3ccsc3c21 | > 100 µM |  | > 100 µM | > 100 µM | > 100 µM | > 100 µM | > 100 µM | > 100 µM |  |  |  |  | > 100 µM |  |  |  | 
16 | N#C/C(=C\c1cc(Cl)cc(Cl)c1)c1ccccn1 | > 100 µM | > 100 µM | > 100 µM | > 100 µM |  | > 100 µM | > 100 µM | > 100 µM |  |  |  |  | 40.2 µM |  |  |  | 
17 | CC(=O)N(O)[C@@H]1CC[C@H](n2cnc3c(N)ncnc32)C1 | > 100 µM | > 100 µM | > 100 µM | > 100 µM | > 100 µM | > 100 µM | > 100 µM |  |  |  |  |  | > 100 µM |  |  |  | 
18 | O=C1/C(=C/c2cccc(Br)c2)CSC/C1=C\c1cccc(Br)c1 |  | 6.45 µM | 4.33 µM | 3.59 µM |  | 5.22 µM | 3.71 µM | 5.67 µM |  |  |  |  | 6.98 µM |  |  |  | 
19 | COc1cc(COC(=O)N(CC(=O)O)c2ccccc2)c([N+](=O)[O-])cc1OC | > 100 µM | > 100 µM |  | > 100 µM | > 100 µM | > 100 µM | > 100 µM | > 100 µM |  |  |  |  | > 100 µM |  |  |  | 
20 | CSCCCNC(=O)c1csc(-c2csc(C(CNC(=O)OC(C)(C)C)CNC(=O)OC(C)(C)C)n2)n1 | 43.9 µM | 44 µM | > 100 µM | > 100 µM | > 100 µM | > 100 µM | > 100 µM |  |  |  |  |  | > 100 µM |  |  |  | 
21 | COC(=O)c1ccc(C)cc1/C=C1\Cc2ccc(C)cc2C1=O | > 100 µM | > 100 µM | 23.2 µM | 29.7 µM | 59.4 µM | 32.9 µM | 26.3 µM | 40.9 µM |  |  |  |  |  |  |  |  | 
22 | Nc1nc(N)c2ncn(Cc3ccccc3CCl)c2n1 | > 100 µM | > 100 µM | > 100 µM | > 100 µM | > 100 µM | > 100 µM | > 100 µM | > 100 µM |  |  |  |  |  |  |  |  | 
23 | O=C(O)c1cnc2[nH]ccn2c1=O | > 100 µM | > 100 µM | > 100 µM | > 100 µM |  | > 100 µM | > 100 µM | > 100 µM |  |  |  |  | > 100 µM |  |  |  | 
24 | O=c1[nH]c(=O)n(C2CC(O)C(CO)O2)cc1C1=NC1 (centres undefined) | > 100 µM |  | > 100 µM | > 100 µM | > 100 µM | > 100 µM | > 100 µM | > 100 µM |  |  |  |  | > 100 µM |  |  |  | 
25 | O=C1CCCC/C1=C\c1ccc(Br)cc1 | 6.24 µM | 94.4 µM | 31.6 µM | 44.5 µM | 52.3 µM | 41.5 µM | 29.6 µM |  |  |  |  |  | 38.3 µM |  |  |  | 
